Source: ChEMBL document CHEMBL5518233, “Design and Synthesis of 3-(2H-Chromen-3-yl)-5-aryl-1,2,4-oxadiazole Derivatives as Novel Toll-like Receptor 2/1 Agonists That Inhibit Lung Cancer In Vitro and In Vivo” (J Med Chem, 2024)
Where a SMILES comes first, the peptide text is derived from it. The star is where a group is joined. X1 = CCCCCCCCCCCCCCCC(=O)OCC(C*)OC(=O)CCCCCCCCCCCCCCC; Palmitoyl = CCCCCCCCCCCCCCCC(=O)*

What was measured:
A549 = test: Antitumor activity against human A549 cells xenografted with BALB/c mouse assessed as tumor growth inhibition at 5 mg/kg,ip administrated every 2 days for 30 days relative to control; assay type: functional; conditions: A549, 720 h, time 30 day, read-out: TGI
[1] = Antitumor activity against mouse Lewis lung carcinoma cell line xenografted with C57BL/6J mouse assessed as tumor growth inhibition at 5 mg/kg,ip administrated every 2 days for 21 days relative to control; assay type: functional; conditions: 504 h, time 21 day, read-out: TGI
Toll-like receptor 1/2 [2] = target: T1, Toll-like receptor 1/2 (Homo sapiens, UniProt O60603+Q15399); test: Agonist activity at human TLR2/TLR1 transfected in HEK293T cells incubated for 24 hrs by dual luciferase reporter gene assay; assay type: cell-based
Toll-like receptor 1/2 [3] = target: T1, Toll-like receptor 1/2; test: Agonist activity at human TLR2/TLR1 transfected in HEK293T cells assessed as relative light unit at 100 ng/ml incubated for 24 hrs by dual luciferase reporter gene assay; assay type: cell-based; conditions: filed as agonist

T1 sequence (O60603 whole entry): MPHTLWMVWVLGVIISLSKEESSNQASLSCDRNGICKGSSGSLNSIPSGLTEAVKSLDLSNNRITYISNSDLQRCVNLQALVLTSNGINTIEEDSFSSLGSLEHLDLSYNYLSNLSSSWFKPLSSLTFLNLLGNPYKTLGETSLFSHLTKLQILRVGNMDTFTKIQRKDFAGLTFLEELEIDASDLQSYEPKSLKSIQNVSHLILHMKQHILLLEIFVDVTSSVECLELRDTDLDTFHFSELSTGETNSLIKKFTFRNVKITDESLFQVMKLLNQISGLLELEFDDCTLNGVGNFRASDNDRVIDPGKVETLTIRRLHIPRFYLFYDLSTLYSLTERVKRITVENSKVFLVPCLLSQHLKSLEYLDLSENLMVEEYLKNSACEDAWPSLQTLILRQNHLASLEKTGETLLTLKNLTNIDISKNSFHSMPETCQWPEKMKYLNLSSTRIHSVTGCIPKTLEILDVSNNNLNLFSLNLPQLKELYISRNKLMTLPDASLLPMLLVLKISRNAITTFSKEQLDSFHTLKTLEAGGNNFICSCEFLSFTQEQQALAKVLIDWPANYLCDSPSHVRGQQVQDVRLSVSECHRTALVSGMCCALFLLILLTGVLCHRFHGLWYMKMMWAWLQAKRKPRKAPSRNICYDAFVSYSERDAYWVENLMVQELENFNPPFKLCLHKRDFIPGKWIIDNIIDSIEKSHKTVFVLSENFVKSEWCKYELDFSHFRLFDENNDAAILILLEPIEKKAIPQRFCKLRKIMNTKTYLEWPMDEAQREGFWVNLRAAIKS
T1 sequence (Q15399 whole entry): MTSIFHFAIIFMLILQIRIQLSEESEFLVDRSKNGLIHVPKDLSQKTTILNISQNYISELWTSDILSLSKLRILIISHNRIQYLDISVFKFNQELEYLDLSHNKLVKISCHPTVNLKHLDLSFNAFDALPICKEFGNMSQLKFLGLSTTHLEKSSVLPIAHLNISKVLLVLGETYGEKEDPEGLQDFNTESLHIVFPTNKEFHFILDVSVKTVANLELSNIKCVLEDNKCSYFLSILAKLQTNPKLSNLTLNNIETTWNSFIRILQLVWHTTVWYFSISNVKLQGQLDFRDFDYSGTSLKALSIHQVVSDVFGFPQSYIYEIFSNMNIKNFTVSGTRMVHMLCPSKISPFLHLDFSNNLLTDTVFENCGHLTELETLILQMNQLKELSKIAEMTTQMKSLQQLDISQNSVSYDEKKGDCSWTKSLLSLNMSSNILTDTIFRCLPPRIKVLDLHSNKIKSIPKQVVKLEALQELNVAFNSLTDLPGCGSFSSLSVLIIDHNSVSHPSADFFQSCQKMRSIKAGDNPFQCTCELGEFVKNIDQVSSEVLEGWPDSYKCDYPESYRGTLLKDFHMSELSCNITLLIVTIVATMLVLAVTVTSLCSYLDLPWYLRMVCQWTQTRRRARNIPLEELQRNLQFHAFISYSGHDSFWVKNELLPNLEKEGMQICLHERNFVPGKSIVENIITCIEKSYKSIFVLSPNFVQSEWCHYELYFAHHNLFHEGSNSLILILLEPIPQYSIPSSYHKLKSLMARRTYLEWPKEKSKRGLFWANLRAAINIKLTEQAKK

| Structure (SMILES) | inhibition in vivo at 5 mg/kg (A549) | inhibition in vivo at 5 mg/kg [1] | EC50 (Toll-like receptor 1/2 [2]) | Activity (Toll-like receptor 1/2 [3]) |
| --- | --- | --- | --- | --- |
| O=c1[nH]cc(F)c(=O)[nH]1 [FLUOROURACIL] | 77.5% | 79.4% | – | – |
| O=[N+]([O-])c1ccc(F)c(-c2nc(C3=Cc4ccccc4OC3)no2)c1 | – | – | 30.1 nM | – |
| CNc1ccc([N+](=O)[O-])cc1-n1cnc(-c2ccc(C(F)(F)F)cc2O)c1 | – | 63.5% | 35 nM | – |
| CCCCCCCCCCCCCCCC(=O)N[C@@H](CSCC(COC(=O)CCCCCCCCCCCCCCC)OC(=O)CCCCCCCCCCCCCCC)C(=O)N[C@@H](CO)C(=O)N[C@@H](CCCCN)C(=O)N[C@@H](CCCCN)C(=O)N[C@@H](CCCCN)C(=O)N[C@@H](CCCCN)C(=O)O (stereo partly specified) (Palmitoyl-C(X1)SKKKK-OH) | – | – | – | 7.95 RLU |
